Experimental data as given in article PMC12373499 (Nature Metabolism, 2025).
Values joined by “and” are separate entries in the source; they are usually repeats but may differ in a detail not shown here. Equal values may be shown once. Where a SMILES comes first, the peptide text is derived from it. [ ]: non-standard residue; d: D form. The star is where a group is joined. X1 = CN1C(=CC=CC=CC2=[N+](CCCCCC(=O)NCCN3C(=O)CC(*)C3=O)c3ccccc3C2(C)C)C(C)(C)c2ccccc21; Aib = CC(C)(N)C(=O)O

Assays:
[1] = test system: Glp1r^WT/WT, Glp1r^WT/KO and Glp1r^KO/KO mice; assay: Glucose tolerance testing (IPGTT); assay type: in vivo, mouse; set-up: Area under the curve for IPGTT: unit not given beside the values; conditions: for Area under the curve for IPGTT: individual mice
Description: Glucose was measured in blood from the tail vein at 0, 15, 30, 60, 90 and 120 min post glucose challenge. Mice were socially housed in specific-pathogen-free conditions under a 12 h light–dark cycle with ad libitum access to food and water, relative humidity 55 ± 10% and temperature 21 ± 2 °C.

[2] = test system: C57BL/N mice; assay: Food intake study (FED3 devices); assay type: in vivo, mouse; conditions: 10 nmol kg^−1 s.c., dark phase and cumulative 24 h, n = 8 mice
Description: Male and female 12–14 week old C57BL/N mice were singly housed in a 12 h dark–light cycle (14:00–02:00 h) and habituated to FED3 feeding devices for 7 days before commencing the study. All mice were kept on a 12 h light–dark cycle at 20–24 °C and 45–65% relative humidity (typically 21 °C and 55%). On test days, mice were fasted for 3 h before onset of the dark phase by removal of the FED3 devices. […] The study was performed using a three-way crossover design. A 1-week washout period was observed between experimental days. FED3 devices were checked, serviced and food was topped up daily.

Structure (SMILES): CC[C@H](C)[C@H](NC(=O)[C@H](CC(C)C)NC(=O)[C@H](Cc1c[nH]c2ccccc12)NC(=O)[C@H](CCC(N)=O)NC(=O)[C@@H](NC(=O)[C@H](Cc1ccccc1)NC(=O)[C@H](C)NC(=O)[C@H](CCCCN)NC(=O)[C@H](CCC(N)=O)NC(=O)[C@H](C)NC(=O)[C@@H](NC(=O)[C@H](CCCCN)NC(=O)[C@H](CC(=O)O)NC(=O)[C@H](CC(C)C)NC(=O)C(C)(C)NC(=O)[C@@H](NC(=O)[C@H](CO)NC(=O)[C@H](Cc1ccc(O)cc1)NC(=O)[C@H](CC(=O)O)NC(=O)[C@H](CO)NC(=O)[C@@H](NC(=O)[C@H](Cc1ccccc1)NC(=O)[C@@H](NC(=O)CNC(=O)[C@H](CCC(=O)O)NC(=O)C(C)(C)NC(=O)[C@@H](N)Cc1ccc(O)cc1)[C@@H](C)O)[C@@H](C)O)[C@@H](C)CC)[C@@H](C)CC)C(C)C)C(=O)N[C@@H](C)C(=O)NCC(=O)NCC(=O)N1CCC[C@H]1C(=O)N[C@@H](CO)C(=O)N[C@@H](CO)C(=O)NCC(=O)N[C@@H](C)C(=O)N1CCC[C@H]1C(=O)N1CCC[C@H]1C(=O)N1CCC[C@H]1C(=O)N[C@@H](CSC1CC(=O)N(CCNC(=O)CCCCC[N+]2=C(C=CC=CC=C3N(C)c4ccccc4C3(C)C)C(C)(C)c3ccccc32)C1=O)C(N)=O (some centres unmarked) [daLUXendin660] (H-Y[Aib]EGTFTSDYSI[Aib]LDKIAQKAFVQWLIAGGPSSGAPPPC(X1)-NH2)
- effect on blood glucose in glucose tolerance test ([1]; 10 nmol kg^−1, Glp1r^WT/WT and Glp1r^WT/KO mice): substantial glucose-lowering effects
- Area under the curve for IPGTT ([1]; GLP1RKO/KO (KO) mice): 1726.5 and 1785 and 1967.25 and 1908.75 and 1827 and 1220.25 and 1424.25
- Area under the curve for IPGTT ([1]; GLP1RWT/WT and GLP1RWT/KO (WT) mice): 2001 and 1668.75 and 1041.75 and 969.75 and 1068
- Area under the curve for IPGTT, mean ([1]; KO mice, group mean (n = 6 TZP, n = 7 daLUX)): 1694
- Area under the curve for IPGTT, mean ([1]; WT mice, group mean (n = 6 TZP, n = 5 daLUX)): 1350
- Area under the curve for IPGTT, Mean Diff. WT Veh vs. WT treated ([1]; WT mice, one-way ANOVA, Benjamini, Krieger and Yekutieli): 966.4
- Area under the curve for IPGTT, Mean Diff. WT treated vs. KO treated ([1]; WT vs. KO mice, one-way ANOVA, Benjamini, Krieger and Yekutieli): -344.3
- effect on food intake [2]: reduced food intake
